Experiments:
[1] = Inhibition of KCl-induced tonic contraction in Beagle dog detrusor muscle strips preincubated for 15 mins before KCl challenge; assay type: functional; conditions: Canis lupus familiaris
[2] = Protein binding in Beagle dog serum; assay type: ADME, cell-free, Canis lupus familiaris; conditions: read-out: PPB (converted)
[3] = Ratio of EC50 for inhibition of KCl-induced tonic contraction in anesthetized Beagle dog detrusor muscle strip to EC50 for dog recombinant beta3 adrenergic receptor expressed in CHO cells; parameters: species or system Canis lupus familiaris
[4] = molecular target: Beta-3 adrenergic receptor (Homo sapiens, UniProt P13945); experiment: Agonist activity at human recombinant beta3 adrenergic receptor expressed in CHO cells assessed as cAMP accumulation by enzyme immunoassay; assay type: functional, cell-based
[5] = Cmax in Beagle dog at 0.10 mg/kg, po by cassette assay; assay type: ADME, organism-based, Canis lupus familiaris; parameters: dose 0.1 mg/kg, route oral; conditions: in vivo, 0.1 mg/kg
[6] = AUC (0 to 24 hrs) in Beagle dog at 0.10 mg/kg, po by cassette assay; assay type: ADME, organism-based, Canis lupus familiaris; parameters: time < 24 hr, dose 0.1 mg/kg, route oral; conditions: plasma, 0.1 mg/kg
[7] = Terminal half life in Beagle dog plasma at 0.10 mg/kg, iv by cassette assay; assay type: ADME, organism-based, Canis lupus familiaris; parameters: dose 0.1 mg/kg, route intravenous; conditions: 0.1 mg/kg, read-out: beta t1/2 (converted)
[8] = Total clearance in Beagle dog at 0.10 mg/kg, iv by cassette assay; assay type: ADME, organism-based, Canis lupus familiaris; parameters: dose 0.1 mg/kg, route intravenous; conditions: in vivo, 0.1 mg/kg
[9] = Bioavailability in Beagle dog at 0.10 mg/kg, po and iv by cassette assay; assay type: ADME, organism-based, Canis lupus familiaris; conditions: in vivo, 0.1 mg/kg
[10] = Metabolic stability in rat liver microsomes assessed as intrinsic clearance after 120 mins in presence of NADPH; assay type: ADME, Microsome
[11] = Metabolic stability in monkey liver microsomes assessed as intrinsic clearance after 120 mins in presence of NADPH; assay type: ADME, Macaca mulatta, Microsome; conditions: rhesus monkey
[12] = Metabolic stability in human liver microsomes assessed as intrinsic clearance after 120 mins in presence of NADPH; assay type: ADME, Microsome
[13] = Cmax in rat at 0.32 mg/kg, po by cassette assay; assay type: ADME, organism-based; parameters: dose 0.32 mg/kg, route oral; conditions: in vivo
[14] = AUC (0 to 24 hrs) in rat at 0.32 mg/kg, po by cassette assay; assay type: ADME, organism-based; parameters: time < 24 hr, dose 0.32 mg/kg, route oral; conditions: plasma
[15] = Terminal half life in rat plasma at 0.32 mg/kg, iv by cassette assay; assay type: ADME, organism-based; parameters: dose 0.32 mg/kg, route intravenous; conditions: read-out: beta t1/2 (converted)
[16] = Total clearance in rat at 0.32 mg/kg, iv by cassette assay; assay type: ADME, organism-based; parameters: dose 0.32 mg/kg, route intravenous; conditions: in vivo
[17] = Bioavailability in rat at 0.32 mg/kg, po and iv by cassette assay; assay type: ADME, organism-based; conditions: in vivo
[18] = Cmax in monkey at 0.32 mg/kg, po by cassette assay; assay type: ADME, organism-based, Macaca mulatta; parameters: dose 0.32 mg/kg, route oral; conditions: rhesus monkey, in vivo
[19] = AUC (0 to 24 hrs) in monkey at 0.32 mg/kg, po by cassette assay; assay type: ADME, organism-based, Macaca mulatta; parameters: time < 24 hr, dose 0.32 mg/kg, route oral; conditions: rhesus monkey, plasma
[20] = Terminal half life in monkey plasma at 0.32 mg/kg, iv by cassette assay; assay type: ADME, organism-based, Macaca mulatta; parameters: dose 0.32 mg/kg, route intravenous; conditions: rhesus monkey, read-out: beta t1/2 (converted)
[21] = Total clearance in monkey at 0.32 mg/kg, iv by cassette assay; assay type: ADME, organism-based, Macaca mulatta; parameters: dose 0.32 mg/kg, route intravenous; conditions: rhesus monkey, in vivo
[22] = Bioavailability in monkey at 0.32 mg/kg, po and iv by cassette assay; assay type: ADME, organism-based, Macaca mulatta; conditions: rhesus monkey, in vivo
[23] = molecular target: Beta-3 adrenergic receptor (Canis lupus familiaris, UniProt O02662); experiment: Agonist activity at dog recombinant beta3 adrenergic receptor expressed in CHO cells assessed as cAMP accumulation by enzyme immunoassay; assay type: functional, cell-based; conditions: read-out: EC50
Canis familiaris [24] = experiment: Inhibition of carbachol-induced increase in intravesical pressure in Beagle dog OAB model at 10 ug/kg, iv for 30 mins measured for 180 mins; assay type: functional; conditions: Canis lupus familiaris
Canis familiaris [25] = experiment: Inhibition of carbachol-induced increase in intravesical pressure in intraduodenally dosed Beagle dog OAB model for 30 mins measured for 180 mins; assay type: functional, organism-based; conditions: Canis lupus familiaris
[26] = molecular target: Beta-1 adrenergic receptor (Homo sapiens, UniProt P08588)
Description: Agonist activity at human recombinant beta-1 adrenergic receptor expressed in CHO cells assessed as cAMP accumulation by enzyme immunoassay

[27] = molecular target: Beta-2 adrenergic receptor (Homo sapiens, UniProt P07550)
Description: Agonist activity at human recombinant beta2 adrenergic receptor expressed in CHO cells assessed as cAMP accumulation by enzyme immunoassay

[28] = Cmax in Beagle dog at 0.10 mg/kg, po; assay type: ADME, organism-based, Canis lupus familiaris; parameters: dose 0.1 mg/kg, route oral; conditions: in vivo, 0.1 mg/kg
[29] = AUC (0 to 24 hrs) in Beagle dog at 0.10 mg/kg, po; assay type: ADME, organism-based, Canis lupus familiaris; parameters: time < 24 hr, dose 0.1 mg/kg, route oral; conditions: plasma, 0.1 mg/kg
[30] = Terminal half life in Beagle dog at 0.10 mg/kg, po; assay type: ADME, organism-based, Canis lupus familiaris; parameters: dose 0.1 mg/kg, route oral; conditions: in vivo, 0.1 mg/kg, read-out: beta t1/2 (converted)
[31] = Bioavailability in Beagle dog at 0.10 mg/kg, po and iv; assay type: ADME, organism-based, Canis lupus familiaris; conditions: in vivo, 0.1 mg/kg
[32] = Total clearance in Beagle dog at 0.10 mg/kg, iv; conditions: in vivo, 0.1 mg/kg
[33] = Metabolic stability in dog liver microsomes assessed as intrinsic clearance after 120 mins in presence of NADPH; assay type: ADME, Canis lupus familiaris, Microsome

Beta-3 adrenergic receptor (Homo sapiens, UniProt P13945), sequence (P13945 whole entry): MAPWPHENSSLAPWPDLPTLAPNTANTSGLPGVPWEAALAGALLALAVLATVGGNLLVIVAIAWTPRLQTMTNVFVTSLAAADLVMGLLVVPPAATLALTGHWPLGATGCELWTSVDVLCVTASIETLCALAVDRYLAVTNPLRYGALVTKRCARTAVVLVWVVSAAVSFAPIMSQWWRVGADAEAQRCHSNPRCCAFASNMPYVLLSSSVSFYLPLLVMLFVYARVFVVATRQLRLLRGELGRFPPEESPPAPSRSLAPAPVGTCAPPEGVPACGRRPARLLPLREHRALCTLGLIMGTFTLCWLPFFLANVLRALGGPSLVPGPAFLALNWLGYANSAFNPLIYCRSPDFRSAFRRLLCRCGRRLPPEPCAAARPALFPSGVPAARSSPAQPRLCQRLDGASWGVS
Beta-3 adrenergic receptor (Canis lupus familiaris, UniProt O02662), sequence (O02662 whole entry): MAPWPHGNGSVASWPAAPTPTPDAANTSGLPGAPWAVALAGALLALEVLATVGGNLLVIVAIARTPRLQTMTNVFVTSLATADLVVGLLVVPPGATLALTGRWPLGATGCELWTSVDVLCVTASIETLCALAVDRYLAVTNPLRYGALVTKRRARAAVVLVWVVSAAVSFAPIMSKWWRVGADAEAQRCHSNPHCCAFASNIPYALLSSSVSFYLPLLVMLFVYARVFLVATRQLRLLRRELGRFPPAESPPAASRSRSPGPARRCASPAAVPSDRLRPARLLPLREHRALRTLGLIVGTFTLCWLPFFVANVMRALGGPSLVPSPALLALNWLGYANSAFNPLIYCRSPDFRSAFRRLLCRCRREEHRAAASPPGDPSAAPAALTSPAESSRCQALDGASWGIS
Beta-2 adrenergic receptor, sequence (P07550 whole entry): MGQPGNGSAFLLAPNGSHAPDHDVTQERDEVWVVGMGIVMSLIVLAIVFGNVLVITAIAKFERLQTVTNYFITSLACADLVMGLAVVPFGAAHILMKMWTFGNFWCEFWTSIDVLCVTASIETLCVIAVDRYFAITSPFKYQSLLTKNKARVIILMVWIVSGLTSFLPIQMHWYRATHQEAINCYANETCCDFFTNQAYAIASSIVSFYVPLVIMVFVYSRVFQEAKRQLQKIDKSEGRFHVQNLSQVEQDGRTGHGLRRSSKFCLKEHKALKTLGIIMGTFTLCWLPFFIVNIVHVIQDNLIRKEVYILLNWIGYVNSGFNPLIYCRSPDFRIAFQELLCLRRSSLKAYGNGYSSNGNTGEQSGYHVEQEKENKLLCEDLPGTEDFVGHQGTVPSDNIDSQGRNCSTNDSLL
Beta-1 adrenergic receptor, sequence (P08588 whole entry): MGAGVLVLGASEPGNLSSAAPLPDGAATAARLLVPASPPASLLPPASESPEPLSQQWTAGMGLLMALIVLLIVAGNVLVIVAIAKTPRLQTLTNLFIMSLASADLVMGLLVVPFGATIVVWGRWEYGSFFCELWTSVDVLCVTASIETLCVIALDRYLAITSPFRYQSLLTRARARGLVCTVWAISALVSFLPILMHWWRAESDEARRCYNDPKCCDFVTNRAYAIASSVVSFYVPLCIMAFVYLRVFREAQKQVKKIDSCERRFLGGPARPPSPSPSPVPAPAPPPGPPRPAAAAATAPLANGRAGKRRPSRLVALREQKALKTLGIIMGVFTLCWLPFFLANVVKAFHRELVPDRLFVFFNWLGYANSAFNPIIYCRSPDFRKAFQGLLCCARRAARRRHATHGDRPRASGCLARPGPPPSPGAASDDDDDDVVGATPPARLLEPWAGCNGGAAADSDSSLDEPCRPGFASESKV

| EC50 ([1]; read-out: EC50) [nM] | fraction unbound [2] | EC50 ([4]; read-out: EC50) [nM] | Cmax [5] [ng/mL] | AUC(0-t) at 24 h [6] [ng·h/mL] | half-life [7] [h] | clearance [8] [mL/min/kg] | bioavailability [9] [%] | CLint scaled [10] [mL/min/kg] | Cmax [13] [ng/mL] | AUC(0-t) at 24 h [14] [ng·h/mL] | half-life [15] [h] | clearance [16] [mL/min/kg] | bioavailability [17] [%] | Cmax [18] [ng/mL] | AUC(0-t) at 24 h [19] [ng·h/mL] | half-life [20] [h] | EC50 [23] [nM] | EC50 [26] [nM] | SMILES | inhibition in vivo at 0.01 mg/kg (Canis familiaris [24]) [%] | further results |
| --- | --- | --- | --- | --- | --- | --- | --- | --- | --- | --- | --- | --- | --- | --- | --- | --- | --- | --- | --- | --- | --- |
| 62 | 0.17 | 0.13 | 34.5 | 385 | 5.5 | 3.2 | 81 | 46.9 | 17 | 72.2 | 3 | 17.1 | 25 | 35.1 | 272 | 4.7 | 1.4 | 800 | CS(=O)(=O)NC(=O)c1ccc(-c2ccc(CCNC[C@H](O)c3cccnc3)cc2)cc1OC1CCCCC1.Cl.Cl | > 70 | Ratio EC50 [3]: >50; CLint scaled [11]: 3.4 mL/min/kg; CLint scaled [12]: 3.5 mL/min/kg; clearance [21]: 7.5 mL/min/kg; bioavailability [22]: 38%; EC50 (Canis familiaris [25]): 26.5 nM; ED50 (Canis familiaris [25]): 0.0162 mg/kg; EC50 [27]: > 10000 nM |
| > 50 |  | 0.43 | 22.2 | 363 | 7.8 | 3 | 70 |  |  |  |  |  |  |  |  |  | 0.83 | > 1000 | CS(=O)(=O)NC(=O)c1ccc(-c2ccc(CCNC[C@H](O)c3ccccc3)cc2)cc1OC1CCCCC1.Cl | 58 | EC50 ([1]; read-out: pEC50 (converted)): 12.6 nM; Ratio EC50 [3]: >50; EC50 ([4]; read-out: pEC50 (converted)): 0.126 nM |
| 11.4 | 0.1 | 0.32 | 39.8 | 441 | 4.3 | 2.9 | 75 | 84.3 | 9.9 | 108 | 2.3 | 19.6 | 41 | 15.7 | 143 | 5.8 | 0.68 | > 1000 | CC(C)Sc1cc(-c2ccc(CCNC[C@H](O)c3ccccc3)cc2)ccc1C(=O)NS(C)(=O)=O.Cl | > 70 | Cmax [28]: 18.2 ng/mL; AUC(0-t) at 24 h [29]: 215 ng·h/mL; half-life [30]: 4.8 h; bioavailability [31]: 62%; clearance [21]: 9.2 mL/min/kg; bioavailability [22]: 24%; EC50 (Canis familiaris [25]): 8.2 nM; ED50 (Canis familiaris [25]): 0.0145 mg/kg; EC50 [27]: > 10000 nM; clearance [32]: 5.1 mL/min/kg |
| 1.2 | 0.1 | 0.6 | 8.6 | 95.8 | 6.3 | 7.5 | 45 | 36 | 14.9 | 60.9 | 4.1 | 16.9 | 20 | 2.7 | 19.3 | 3.1 | 1.1 | 260 | CC(C)Nc1cc(-c2ccc(CCNC[C@H](O)c3ccccc3)cc2)ccc1C(=O)NS(C)(=O)=O.Cl.Cl | > 70 | CLint scaled [33]: 3.3 mL/min/kg; CLint scaled [11]: 5.4 mL/min/kg; clearance [21]: 25.9 mL/min/kg; bioavailability [22]: 10%; EC50 (Canis familiaris [25]): 7.1 nM; ED50 (Canis familiaris [25]): 0.0349 mg/kg; EC50 [27]: > 10000 nM |

Reference: ChEMBL document CHEMBL1138480, “Discovery of highly potent and selective biphenylacylsulfonamide-based beta3-adrenergic receptor agonists and evaluation of physical properties as potential overactive bladder therapies: part 5” (J Med Chem, 2009)
